Consider 27 compounds from patent US10208064B2, “Inhibitors of the renal outer medullary potassium channel” (MERCK SHARP & DOHME CORP., priority 2014, dated 2019).

Each structure is given as a SMILES string.

One may read the IC50 as the point on the concentration scale where inhibition reaches its midpoint.

Sequence of ROMK (Kir1.1) channel (P48048 whole entry): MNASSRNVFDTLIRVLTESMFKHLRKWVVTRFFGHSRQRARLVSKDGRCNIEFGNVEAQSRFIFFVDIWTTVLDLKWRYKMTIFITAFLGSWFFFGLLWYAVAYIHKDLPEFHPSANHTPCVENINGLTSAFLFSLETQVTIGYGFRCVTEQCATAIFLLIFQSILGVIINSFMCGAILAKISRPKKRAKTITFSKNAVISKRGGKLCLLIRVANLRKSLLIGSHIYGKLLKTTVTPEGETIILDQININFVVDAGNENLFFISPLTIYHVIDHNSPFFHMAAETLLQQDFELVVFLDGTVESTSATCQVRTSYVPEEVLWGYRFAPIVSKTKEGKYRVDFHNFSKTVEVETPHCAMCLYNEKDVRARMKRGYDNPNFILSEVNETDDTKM

The experiment deals with ROMK (Kir1.1) channel (Homo sapiens (Human), UniProt P48048). The experiment is described as follows: Thallium Flux Assay. In kind it is cell-based. On the procedure:
The following Thallium Flux Assay was performed on each of the final product compounds in the Examples.
A Thallium Flux Assay was performed on the compounds of the Examples. This assay has been described previously; see, e.g., PCT Published Application WO 2013/062900.
Turning to `CC1=C(N2CCC3(CCN(C(CO)c4ccc5c(ccc6nnnn65)c4)CC3)C2=O)COC1=O` (racemic) [Example 28, 8-(2-hydroxy-1-(tetrazolo[1,5-a]quinolin-7-yl)ethyl)-2-(4-methyl-5-oxo-2,5-dihydrofuran-3-yl)-2,8-diazaspiro[4.5]decan-1-one], half-maximal inhibition (IC50) was put at 18 nM.

The compound `CC1=C(N2CCC3(CCN(C[C@H](O)c4ccc5c(c4Cl)Cn4nnnc4-5)CC3)C2=O)COC1=O` [Example 1, (R)-8-(2-(6-chloro-5H-tetrazolo[5,1-a]isoindol-7-yl)-2-hydroxyethyl)-2-(4-methyl-5-oxo-2,5-dihydrofuran-3-yl)-2,8-diazaspiro[4.5]decan-1-one] registered an IC50 of 31 nM.

As to `CC1=C(N2CCC3(CCN(C[C@@H](O)c4ccc5c(c4Cl)Cn4nnnc4-5)CC3)C2=O)COC1=O` [Example 2, (S)-8-(2-(6-chloro-5H-tetrazolo[5,1-a]isoindol-7-yl)-2-hydroxyethyl)-2-(4-methyl-5-oxo-2,5-dihydrofuran-3-yl)-2,8-diazaspiro[4.5]decan-1-one], the concentration for half-maximal inhibition (IC50) turned out to be 9 nM.

In turn, `CC1=C(N2CC[C@@]3(CCN(C[C@H](O)c4ccc5c(c4)Cn4nnnc4-5)C[C@@H]3F)C2=O)COC1=O` [Example 3, (5S,6R)-6-fluoro-8-((R)-2-hydroxy-2-(5H-tetrazolo[5,1-a]isoindol-7-yl)ethyl)-2-(4-methyl-5-oxo-2,5-dihydrofuran-3-yl)-2,8-diazaspiro[4.5]decan-1-one] gave an IC50 of 35 nM.

The compound `CC1=C(N2CC[C@]3(CCN(C[C@H](O)c4ccc5c(c4)Cn4nnnc4-5)C[C@H]3F)C2=O)COC1=O` [Example 4, (5R,6S)-6-fluoro-8-((R)-2-hydroxy-2-(5H-tetrazolo[5,1-a]isoindol-7-yl)ethyl)-2-(4-methyl-5-oxo-2,5-dihydrofuran-3-yl)-2,8-diazaspiro[4.5]decan-1-one] yielded an IC50 of 43 nM.

`CC1=C(N2CC[C@@]3(CCN(C[C@@H](O)c4ccc5c(c4)Cn4nnnc4-5)C[C@@H]3F)C2=O)COC1=O` [Example 5, (5S,6R)-6-fluoro-8-((S)-2-hydroxy-2-(5H-tetrazolo[5,1-a]isoindol-7-yl)ethyl)-2-(4-methyl-5-oxo-2,5-dihydrofuran-3-yl)-2,8-diazaspiro[4.5]decan-1-one] had a half-inhibitory concentration (IC50) of 111 nM.

Turning to `CC1=C(N2CC[C@]3(CCN(C[C@@H](O)c4ccc5c(c4)Cn4nnnc4-5)C[C@H]3F)C2=O)COC1=O` [Example 6, (5R,6S)-6-fluoro-8-((S)-2-hydroxy-2-(5H-tetrazolo[5,1-a]isoindol-7-yl)ethyl)-2-(4-methyl-5-oxo-2,5-dihydrofuran-3-yl)-2,8-diazaspiro[4.5]decan-1-one], half-maximal inhibition (IC50) was put at 40 nM.

For the compound `CC1=C(N2CCC3(CCN(C[C@H](O)c4ccc5c(c4)CCc4nnnn4-5)CC3)C2=O)COC1=O` [Example 7A, (R)-8-(2-(4,5-dihydrotetrazolo[1,5-a]quinolin-7-yl)-2-hydroxyethyl)-2-(4-methyl-5-oxo-2,5-dihydrofuran-3-yl)-2,8-diazaspiro[4.5]decan-1-one], the IC50 was 34 nM.

Regarding `CC1=C(N2CCC3(CCN(C[C@@H](O)c4ccc5c(c4)CCc4nnnn4-5)CC3)C2=O)COC1=O` [Example 7B, (S)-8-(2-(4,5-dihydrotetrazolo[1,5-a]quinolin-7-yl)-2-hydroxyethyl)-2-(4-methyl-5-oxo-2,5-dihydrofuran-3-yl)-2,8-diazaspiro[4.5]decan-1-one], the IC50 was determined as 38 nM.

In turn, `CC1=C(N2CCC3(CCN(C[C@H](O)c4ccc5c(c4)Cn4nnnc4-5)CC3)C2=O)COC1=O` [Example 8, (R)-8-(2-hydroxy-2-(5H-tetrazolo[5,1-a]isoindol-7-yl)ethyl)-2-(4-methyl-5-oxo-2,5-dihydrofuran-3-yl)-2,8-diazaspiro[4.5]decan-1-one] gave an IC50 of 13 nM.

The compound `CC1=C(N2CCC3(CCN(C[C@@H](O)c4ccc5c(c4)Cn4nnnc4-5)CC3)C2=O)COC1=O` [Example 9, (S)-8-(2-hydroxy-2-(5H-tetrazolo[5,1-a]isoindol-7-yl)ethyl)-2-(4-methyl-5-oxo-2,5-dihydrofuran-3-yl)-2,8-diazaspiro[4.5]decan-1-one] displayed an IC50 of 19 nM.

In turn, `CC1=C(N2CCC3(CCN(C[C@H](O)c4ccc5c(c4C)CCc4nnnn4-5)CC3)C2=O)COC1=O` [Example 10, (R)-8-(2-hydroxy-2-(6-methyl-4,5-dihydrotetrazolo[1,5-a]quinolin-7-yl)ethyl)-2-(4-methyl-5-oxo-2,5-dihydrofuran-3-yl)-2,8-diazaspiro[4.5]decan-1-one] showed a half-maximal inhibitory concentration (IC50) of 46 nM.

`CC1=C(N2CCC3(CCN(C[C@@H](O)c4ccc5c(c4C)CCc4nnnn4-5)CC3)C2=O)COC1=O` [Example 11, (S)-8-(2-hydroxy-2-(6-methyl-4,5-dihydrotetrazolo[1,5-a]quinolin-7-yl)ethyl)-2-(4-methyl-5-oxo-2,5-dihydrofuran-3-yl)-2,8-diazaspiro[4.5]decan-1-one] came in with an IC50 of 47 nM.

The compound `C[C@@H]1CC2(CCN(C[C@H](O)c3ccc4c(c3)CCc3nnnn3-4)CC2)C(=O)N1C1=CC(=O)OC1` [Example 12, (R)-8-((R)-2-(4,5-dihydrotetrazolo[1,5-a]quinolin-7-yl)-2-hydroxyethyl)-3-methyl-2-(5-oxo-2,5-dihydrofuran-3-yl)-2,8-diazaspiro[4.5]decan-1-one] returned an IC50 of 188 nM.

`C[C@H]1CC2(CCN(C[C@H](O)c3ccc4c(c3)CCc3nnnn3-4)CC2)C(=O)N1C1=CC(=O)OC1` [Example 13, (S)-8-((R)-2-(4,5-dihydrotetrazolo[1,5-a]quinolin-7-yl)-2-hydroxyethyl)-3-methyl-2-(5-oxo-2,5-dihydrofuran-3-yl)-2,8-diazaspiro[4.5]decan-1-one] registered an IC50 of 23 nM.

Regarding `C[C@@H]1CC2(CCN(C[C@@H](O)c3ccc4c(c3)CCc3nnnn3-4)CC2)C(=O)N1C1=CC(=O)OC1` [Example 14, (R)-8-((S)-2-(4,5-dihydrotetrazolo[1,5-a]quinolin-7-yl)-2-hydroxyethyl)-3-methyl-2-(5-oxo-2,5-dihydrofuran-3-yl)-2,8-diazaspiro[4.5]decan-1-one], the midpoint of inhibition, the IC50, lay at 284 nM.

As for `C[C@H]1CC2(CCN(C[C@@H](O)c3ccc4c(c3)CCc3nnnn3-4)CC2)C(=O)N1C1=CC(=O)OC1` [Example 15, (S)-8-((S)-2-(4,5-dihydrotetrazolo[1,5-a]quinolin-7-yl)-2-hydroxyethyl)-3-methyl-2-(5-oxo-2,5-dihydrofuran-3-yl)-2,8-diazaspiro[4.5]decan-1-one], the IC50 was determined as 14 nM.

For the compound `C[C@@H]1CC2(CCN(C[C@H](O)c3ccc4c(ccc5nnnn54)c3)CC2)C(=O)N1C1=CC(=O)OC1` [Example 16, (R)-8-((R)-2-hydroxy-2-(tetrazolo[1,5-a]quinolin-7-yl)ethyl)-3-methyl-2-(5-oxo-2,5-dihydrofuran-3-yl)-2,8-diazaspiro[4.5]decan-1-one], the IC50 is 32 nM.

The compound `C[C@H]1CC2(CCN(C[C@H](O)c3ccc4c(ccc5nnnn54)c3)CC2)C(=O)N1C1=CC(=O)OC1` [Example 17, (S)-8-((R)-2-hydroxy-2-(tetrazolo[1,5-a]quinolin-7-yl)ethyl)-3-methyl-2-(5-oxo-2,5-dihydrofuran-3-yl)-2,8-diazaspiro[4.5]decan-1-one] yielded an IC50 of 20 nM.

In the case of `C[C@@H]1CC2(CCN(C[C@@H](O)c3ccc4c(ccc5nnnn54)c3)CC2)C(=O)N1C1=CC(=O)OC1` [Example 18, (R)-8-((S)-2-hydroxy-2-(tetrazolo[1,5-a]quinolin-7-yl)ethyl)-3-methyl-2-(5-oxo-2,5-dihydrofuran-3-yl)-2,8-diazaspiro[4.5]decan-1-one], the IC50 amounted to 7 nM.

`C[C@H]1CC2(CCN(C[C@@H](O)c3ccc4c(ccc5nnnn54)c3)CC2)C(=O)N1C1=CC(=O)OC1` [Example 19, (S)-8-((S)-2-hydroxy-2-(tetrazolo[1,5-a]quinolin-7-yl)ethyl)-3-methyl-2-(5-oxo-2,5-dihydrofuran-3-yl)-2,8-diazaspiro[4.5]decan-1-one] came in with a half-inhibitory concentration (IC50) of 10 nM.

In the case of `CC1=C(N2CCC3(CCN(C[C@H](O)c4ccc5c(ccc6nnnn65)c4)CC3)C2=O)COC1=O` [Example 20, (R)-8-(2-hydroxy-2-(tetrazolo[1,5-a]quinolin-7-yl)ethyl)-2-(4-methyl-5-oxo-2,5-dihydrofuran-3-yl)-2,8-diazaspiro[4.5]decan-1-one], the IC50 came to 11 nM.

For the compound `CC1=C(N2CCC3(CCN(C[C@@H](O)c4ccc5c(ccc6nnnn65)c4)CC3)C2=O)COC1=O` [Example 21, (S)-8-(2-hydroxy-2-(tetrazolo[1,5-a]quinolin-7-yl)ethyl)-2-(4-methyl-5-oxo-2,5-dihydrofuran-3-yl)-2,8-diazaspiro[4.5]decan-1-one], the IC50 was determined as 19 nM.

In turn, `CC1=C(N2CCC3(CCN(C[C@@H](O)c4ccc5c(ccc6nnnn65)n4)CC3)C2=O)COC1=O` [Example 22, (R)-8-(2-hydroxy-2-(tetrazolo[1,5-a][1,5]naphthyridin-7-yl)ethyl)-2-(4-methyl-5-oxo-2,5-dihydrofuran-3-yl)-2,8-diazaspiro[4.5]decan-1-one] displayed an IC50 of 185 nM.

The compound `CC1=C(N2CCC3(CCN(C[C@H](O)c4ccc5c(c4C)Cn4nnnc4-5)CC3)C2=O)COC1=O` [Example 23, (R)-8-(2-hydroxy-2-(6-methyl-5H-tetrazolo[5,1-a]isoindol-7-yl)ethyl)-2-(4-methyl-5-oxo-2,5-dihydrofuran-3-yl)-2,8-diazaspiro[4.5]decan-1-one] came in with an IC50 of 17 nM.

In the case of `CC1=C(N2CCC3(CCN(C[C@@H](O)c4ccc5c(c4C)Cn4nnnc4-5)CC3)C2=O)COC1=O` [Example 24, (S)-8-(2-hydroxy-2-(6-methyl-5H-tetrazolo[5,1-a]isoindol-7-yl)ethyl)-2-(4-methyl-5-oxo-2,5-dihydrofuran-3-yl)-2,8-diazaspiro[4.5]decan-1-one], the IC50 is 16 nM.

As to `CC1=C(N2CCC3(CCN(C[C@H](O)c4cc5c(cc4C4CC4)-c4nnnn4C5)CC3)C2=O)COC1=O` [Example 25, (R)-8-(2-(8-cyclopropyl-5H-tetrazolo[5,1-a]isoindol-7-yl)-2-hydroxyethyl)-2-(4-methyl-5-oxo-2,5-dihydrofuran-3-yl)-2,8-diazaspiro[4.5]decan-1-one], the IC50 turned out to be 128 nM.
